# ChEMBL document CHEMBL3608289, “Miltirone Is a Dual Inhibitor of P-Glycoprotein and Cell Growth in Doxorubicin-Resistant HepG2 Cells” (J Nat Prod, 2015)
# Active and inactive are the calls of the source. No cut-off for these calls is given here.
# Key:
# HepG2 [1] = assay: Induction of apoptosis in human doxorubicin-resistant HepG2 cells expressing p-gp assessed as increase in PARP cleavage at 25 uM after 24 hrs by Western blotting; format: functional, cell-based
# HepG2 [2] = assay: Induction of apoptosis in human HepG2 cells assessed as activation of caspase-3/8/9 at 25 uM after 24 hrs by Western blotting; format: functional, cell-based
# HepG2 [3] = assay: Effect on nonphosphorylated SAPK/JNK level in human doxorubicin-resistant HepG2 cells expressing p-gp at 25 uM by Western blot analysis; format: ADME, cell-based; settings: hepg2, 25 µM
# [4] = biological target: T1, Mitogen-activated protein kinase; ERK1/ERK2 (Homo sapiens) (UniProt P27361+P28482); assay: Inhibition of ERK1/2 phosphorylation in human HepG2 cells at 25 uM by Western blot analysis; format: cell-based
# HepG2 [5] = assay: Induction of apoptosis in human HepG2 cells assessed as increase in PARP cleavage at 25 uM after 24 hrs by Western blotting; format: functional, cell-based
# [6] = biological target: T1, Mitogen-activated protein kinase; ERK1/ERK2 (Homo sapiens); assay: Inhibition of ERK1/2 phosphorylation in human doxorubicin-resistant HepG2 cells expressing p-gp at 25 uM by Western blot analysis; format: cell-based
# HepG2 [7] = assay: Effect on nonphosphorylated p38 MAPK level in human doxorubicin-resistant HepG2 cells expressing p-gp at 25 uM by Western blot analysis; format: ADME, cell-based; settings: hepg2, 25 µM
# HepG2 [8] = assay: Increase of SAPK/JNK phosphorylation in human doxorubicin-resistant HepG2 cells expressing p-gp at 25 uM by Western blot analysis; format: cell-based
# HepG2 [9] = assay: Effect on nonphosphorylated p38 MAPK level in human HepG2 cells at 25 uM by Western blot analysis; format: ADME, cell-based; settings: hepg2, 25 µM
# HepG2 [10] = assay: Effect on nonphosphorylated ERK1/ERK2 level in human HepG2 cells at 25 uM by Western blot analysis; format: ADME, cell-based; settings: hepg2, 25 µM
# HepG2 [11] = assay: Effect on nonphosphorylated SAPK/JNK level in human HepG2 cells at 25 uM by Western blot analysis; format: ADME, cell-based; settings: hepg2, 25 µM
# HepG2 [12] = assay: Increase of SAPK/JNK phosphorylation in human HepG2 cells at 25 uM by Western blot analysis; format: cell-based
# [13] = biological target: T2, MAP kinase p38 (Homo sapiens) (UniProt O15264+Q15759+Q16539+P53778); assay: Inhibition of p38 MAPK phosphorylation in human doxorubicin-resistant HepG2 cells expressing p-gp at 25 uM by Western blot analysis; format: cell-based
# HepG2 [14] = assay: Effect on nonphosphorylated ERK1/ERK2 level in human doxorubicin-resistant HepG2 cells expressing p-gp at 25 uM by Western blot analysis; format: ADME, cell-based; settings: hepg2, 25 µM
# HepG2 [15] = assay: Induction of apoptosis in human doxorubicin-resistant HepG2 cells expressing p-gp assessed as activation of caspase-3/8/9 at 25 uM after 24 hrs by Western blotting; format: functional, cell-based
# [16] = biological target: T2, MAP kinase p38 (Homo sapiens); assay: Inhibition of p38 MAPK phosphorylation in human HepG2 cells at 25 uM by Western blot analysis; format: cell-based
# T1 sequence (P27361 whole entry, looked up): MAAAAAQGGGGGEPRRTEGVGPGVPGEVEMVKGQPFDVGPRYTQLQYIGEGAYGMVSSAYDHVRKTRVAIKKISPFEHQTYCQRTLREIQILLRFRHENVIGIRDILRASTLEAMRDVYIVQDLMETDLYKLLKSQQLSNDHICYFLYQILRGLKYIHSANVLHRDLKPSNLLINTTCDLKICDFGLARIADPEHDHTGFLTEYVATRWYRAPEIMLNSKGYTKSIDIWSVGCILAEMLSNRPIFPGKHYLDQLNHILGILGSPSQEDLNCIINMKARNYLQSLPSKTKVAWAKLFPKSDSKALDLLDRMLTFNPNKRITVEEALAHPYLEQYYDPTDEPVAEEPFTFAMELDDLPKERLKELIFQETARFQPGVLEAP
# T1 sequence (P28482 whole entry, looked up): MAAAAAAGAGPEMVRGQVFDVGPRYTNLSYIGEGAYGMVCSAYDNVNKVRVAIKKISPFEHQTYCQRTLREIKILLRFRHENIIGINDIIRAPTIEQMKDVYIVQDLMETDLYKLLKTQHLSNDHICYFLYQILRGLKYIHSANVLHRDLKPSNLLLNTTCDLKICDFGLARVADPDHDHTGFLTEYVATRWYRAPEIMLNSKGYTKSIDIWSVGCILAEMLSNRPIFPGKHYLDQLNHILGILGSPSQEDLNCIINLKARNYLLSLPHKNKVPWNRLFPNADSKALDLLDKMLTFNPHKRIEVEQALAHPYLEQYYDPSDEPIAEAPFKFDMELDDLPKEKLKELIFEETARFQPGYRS
structure (smiles),measurement,setting,value
Cc1cccc2c3c(ccc12)C1=C(C(=O)C3=O)[C@@H](C)CO1 [DIHYDROTANSHINONE I],Activity,HepG2 [1],Active
same,Activity,HepG2 [2],Active
same,Activity,HepG2 [3],Non-toxic
same,inhibition,[4],inactive
same,Activity,HepG2 [5],Active
same,inhibition,[6],Active
same,Activity,HepG2 [7],Non-toxic
same,Activity,HepG2 [8],inactive
same,Activity,HepG2 [9],Non-toxic
same,Activity,HepG2 [10],Non-toxic
same,Activity,HepG2 [11],Non-toxic
same,Activity,HepG2 [12],Active
same,inhibition,[13],Active
same,Activity,HepG2 [14],Non-toxic
same,Activity,HepG2 [15],Active
same,inhibition,[16],Active
